In patent US8771641B2, “Aryloxyanilide imaging agents” (priority 2009, dated 2014):

Assays:
PBR [1] = target: T1, PBR (Rattus norvegicus, UniProt P16257); experiment: In vivo biodistribution model: OB:striatum uptake; set-up: species or system Wistar rats; conditions: injection via lateral tail vein, 2, 10, 30 or 60 min, in words, compared with PBR06
T1 construct: OB is known to express higher levels of PBR compared with other areas of rat brain; from tissue; host or cells: living Wistar rats; olfactory bulb and striatum sampled
Method: Example 11 describes the rat biodistribution model that was used to compare in vivo imaging agents of the invention with PBR06. […] As OB is known to express higher levels of PBR compared with other areas of rat brain (see “Handbook of Substance Abuse” by Tarter, Ammerman and Ott; Springer 1998: 398-99) the ratio OB:striatum is a measure of specificity of test compound uptake.
PBR06 (synthesised according to Briard et al J Med Chem 2009; 52: 688-699) and in vivo imaging agents 1-3 were tested in an in vivo biodistribution model and their respective biodistributions compared.
Adult male Wistar rats (200-300 g) were injected with 1-3 MBq of test compound via the lateral tail vein. At 2, 10, 30 or 60 min (n=3) after injection, rats were euthanised and tissues or fluids were sampled for radioactive measurement on a gamma counter.

[2] = Metabolism assay: intact test compound in rat brain by HPLC; assay type: in vivo, Wistar rats; conditions: 60 minutes post-injection; for proportion intact in the brain (in words): compared with PBR06
Method: Example 12 describes the assay used to evaluate the amount of intact test in vivo imaging agent in rat brain at 60 minutes post-injection.
Brain tissue samples were collected from adult male Wistar rats (200-300 g) at 60 minutes after injection of test in vivo imaging agent. These samples were then processed via solvent extraction (see below) to extract the ^18F-labelled parent along with any ^18F-labelled metabolites, before introduction to the HPLC.
Brain (minus cerebellum +medulla pons) was homogenized with 10 mls of ice-cold Acetonitrile (5000 rpm for 5 mins) to extract all the ^18F-labelled species. The resulting supernatant was then evaporated to dryness (rotary evaporation at 40° C.), concentrated in 2.5 mls of mobile phase, filtered and 1 ml was injected onto the HPLC.
The HPLC set up for ^18F analysis was connected to a dual BGO radio & UV detector. A μBondapak C18 prep column was used having dimensions 7.8×300 mm; 10 μm; 125 Å. An isocratic elution system was used using between 30-40% water and between 60-70% acetonitrile. The flow rate was 3 ml/min. The aqueous to organic phase ratio was varied for each test in vivo imaging agent to obtain a parent peak at retention time at or around 10 min±2 min.

Wistar rat heart PBR = Wistar rat heart PBR (Rattus norvegicus, UniProt P16257); experiment: biochemical
Method: Affinity for PBR was screened using a method adapted from Le Fur et al (Life Sci. 1983; USA 33: 449-57).
Each test compound (dissolved in 50 mM Tris-HCl, pH 7.4, 10 mM MgCl2 containing 1% DMSO) competed for binding to Wistar rat heart PBR against 0.3 nM [^3H] […] The reaction was carried out in 50 mM Tris-HCl, pH 7.4 10 mM MgCl2 for 15 minutes at 25° C.

[3] = cited from earlier work
PBR [4] = target: PBR (Homo sapiens, UniProt P30536); conditions: in vivo; cited from earlier work
[5] = Briard et al J Med Chem 2009; cited from earlier work

Chain of Wistar rat heart PBR (P16257 whole entry): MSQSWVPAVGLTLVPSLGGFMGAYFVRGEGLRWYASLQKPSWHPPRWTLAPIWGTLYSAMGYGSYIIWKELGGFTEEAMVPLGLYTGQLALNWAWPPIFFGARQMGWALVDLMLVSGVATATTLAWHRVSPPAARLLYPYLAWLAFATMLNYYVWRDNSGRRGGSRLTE
T1 sequence (P16257 whole entry): as above
Chain of PBR (Homo sapiens, UniProt P30536) (P30536 whole entry, species assumed): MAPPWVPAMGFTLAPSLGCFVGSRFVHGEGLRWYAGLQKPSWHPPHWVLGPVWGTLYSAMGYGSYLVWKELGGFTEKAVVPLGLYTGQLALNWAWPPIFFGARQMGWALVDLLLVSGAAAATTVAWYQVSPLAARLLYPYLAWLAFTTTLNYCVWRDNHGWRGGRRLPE

O=C(C[18F])N(Cc1cccc2c1OCCO2)c1ccccc1Oc1ccccc1 [in vivo imaging agent 3]
OB:striatum uptake (ratio of uptake in olfactory bulb compared to striatum) (PBR [1]): comparable with PBR06 | percentage of radioactivity in the brain representing intact test compound [2]: 82% | Ki (Wistar rat heart PBR): 1.14 nM

CC1(C)Cc2cccc(CN(C(=O)C[18F])c3ccccc3Oc3ccccc3)c2O1 [in vivo imaging agent 4]
Ki (Wistar rat heart PBR): 2.66 nM

CC[C@@H](C)N([11CH3])C(=O)c1cc2ccccc2c(-c2ccccc2Cl)n1 [(R)-[^11C]PK11195]
protein binding [3]: high protein binding | specific to non-specific binding (PBR [4]): low specific to non-specific binding

O=C(C[18F])N(Cc1cccc2c1OCO2)c1ccccc1Oc1ccccc1 [in vivo imaging agent 2]
OB:striatum uptake (ratio of uptake in olfactory bulb compared to striatum) (PBR [1]): comparable with PBR06 | percentage of radioactivity in the brain representing intact test compound [2]: 92% | proportion intact in the brain (in words) [2]: even higher proportion intact in the brain at 60 minutes post-injection as compared with PBR06 | Ki (Wistar rat heart PBR): 2.03 nM

COc1ccc(OC)c(CN(C(=O)C[18F])c2ccccc2Oc2ccccc2)c1 [PBR06, reference compound]
OB:striatum uptake (ratio of uptake in olfactory bulb compared to striatum) (PBR [1]): less than optimal for in vivo imaging | percentage of radioactivity in the brain representing intact test compound [2]: 90% | metabolism in the periphery [5]: metabolised quite rapidly in the periphery | penetration of metabolites through the blood-brain barrier [5]: do not penetrate the blood-brain barrier | Ki (Wistar rat heart PBR): 0.28 nM

O=C(C[18F])N(Cc1cccc2c1OCC2)c1ccccc1Oc1ccccc1 [in vivo imaging agent 1]
OB:striatum uptake (ratio of uptake in olfactory bulb compared to striatum) (PBR [1]): taken up relatively more in the OB as compared with the striatum | percentage of radioactivity in the brain representing intact test compound [2]: 93% | proportion intact in the brain (in words) [2]: even higher proportion intact in the brain at 60 minutes post-injection as compared with PBR06 | Ki (Wistar rat heart PBR): 0.31 nM
